Patent US7371207B2 (Wyeth, priority 2002, dated 2008)

Tested on: gene expression in the kidney
Test: GeneChip microarray survey of E2 regulated gene expression, kidney
Conditions: for E2: Study 2 ERbKO; for Study 1 E2 Expr (/evansm/Kidney, mouse/Study 1, U74v2/KO E2 kidney (81038)) / E2 Expr (/evansm/Kidney, mouse/Study 2, U74v2/ER bKO kidney E2 (82412)): ERbKO
Procedure: FIG. 1 depicts a pattern analysis generated by a GeneChip microarray analysis. […] Two hours following the final dose, the mice were euthanized and 13 tissues removed for RNA preparation. Two independent studies were performed, with total RNA pooled from two groups of three animals for each condition. Gene expression was quantified by GeneChip microarrays using murine U74 sub A arrays. Data were analyzed for patterns indicating either ERα or ERβ dependent regulation as shown. […] The number of genes in each tissue that matched the theoretical induction (↑) or repression (↓) patterns for ERα or ERβ are indicated.
FIGS. 2A-2C show a series of bar graphs showing gene expression levels of known genes regulated in the kidney in an ERα pattern. […] Expression was measured in two independent sets of animals, with two groups of animals for each treatment in each study. A gene name abbreviation is shown above each graph, with the corresponding Unigene designation shown below.
One week later, the animals were ovariectomized.
GeneChip—Total RNA was prepared separately from each individual organ by using Trizol (Invitrogen) followed by subsequent repurification on Rneasy columns (Qiagen). In general, two pools of RNA were created using equal amounts of RNA from three mice. For small organs such as pituitary, an equal amount of RNA from six animals was combined.
Target Preparation and Array Hybridization—Total RNA was used to generate biotin labeled cRNA target as described (8) which was hybridized to the murine MG_U74Av2 probe arrays (Affymetrix, Santa Clara, Calif.) for 16 h at 45° C. Eleven biotin-labeled cRNAs at defined concentration were spiked into each hybridization and used to convert average difference values to frequencies expressed as parts per million.
The resulting data set was queried for genes whose regulation was dependent on ERα or ERβ.

[1] = 1st line of INDUCTIONS (by order 100060_l_at, kallikrein 8)
[2] = 2nd line of INDUCTIONS (by order 100061_f_at, kallikrein 8)
[3] = 3rd line of INDUCTIONS (by order 95775_f_at, kallikrein 1)
[4] = 4th line of INDUCTIONS (by order 104495_f_at, kallikrein 5)
[5] = 5th line of INDUCTIONS (by order 94716_f_at, kallikrein 9)
[6] = 6th line of INDUCTIONS (by order 100422_f_at, signal transducer and activator of transcription 5A)
[7] = 7th line of INDUCTIONS (by order 100423_f_at, signal transducer and activator of transcription 5A)
[8] = 8th line of INDUCTIONS (by order 101289_f_at, M17979)

Structure (SMILES): C[C@]12CC[C@@H]3c4ccc(O)cc4CC[C@H]3[C@@H]1CC[C@@H]2O [E2, 17β-estradiol]
- E2 [1]: 37
- Study 1 E2 Expr (/evansm/Kidney, mouse/Study 1, U74v2/KO E2 kidney (81038)) [1]: 37
- E2 Expr (/evansm/Kidney, mouse/Study 2, U74v2/ER bKO kidney E2 (82412)) [1]: 44
- E2 Expr (/evansm/Kidney, mouse/Study 2, U74v2/WT kidney E2 (82408)) [1]: 40
- E2 Expr (/evansm/Kidney, mouse/Study 2, U74v2/WT kidney E2 (82409)) [1]: 31
- E2 [2]: 297
- Study 1 E2 Expr (/evansm/Kidney, mouse/Study 1, U74v2/KO E2 kidney (81038)) [2]: 370
- E2 Expr (/evansm/Kidney, mouse/Study 2, U74v2/ER bKO kidney E2 (82412)) [2]: 359
- E2 Expr (/evansm/Kidney, mouse/Study 2, U74v2/WT kidney E2 (82408)) [2]: 338
- E2 Expr (/evansm/Kidney, mouse/Study 2, U74v2/WT kidney E2 (82409)) [2]: 201
- E2 [3]: 291
- Study 1 E2 Expr (/evansm/Kidney, mouse/Study 1, U74v2/KO E2 kidney (81038)) [3]: 333
- E2 Expr (/evansm/Kidney, mouse/Study 2, U74v2/ER bKO kidney E2 (82412)) [3]: 361
- E2 Expr (/evansm/Kidney, mouse/Study 2, U74v2/WT kidney E2 (82408)) [3]: 345
- E2 Expr (/evansm/Kidney, mouse/Study 2, U74v2/WT kidney E2 (82409)) [3]: 234
- E2 [4]: 130
- Study 1 E2 Expr (/evansm/Kidney, mouse/Study 1, U74v2/KO E2 kidney (81038)) [4]: 125
- E2 Expr (/evansm/Kidney, mouse/Study 2, U74v2/ER bKO kidney E2 (82412)) [4]: 163
- E2 Expr (/evansm/Kidney, mouse/Study 2, U74v2/WT kidney E2 (82408)) [4]: 145
- E2 Expr (/evansm/Kidney, mouse/Study 2, U74v2/WT kidney E2 (82409)) [4]: 89
- E2 [5]: 302
- Study 1 E2 Expr (/evansm/Kidney, mouse/Study 1, U74v2/KO E2 kidney (81038)) [5]: 372
- E2 Expr (/evansm/Kidney, mouse/Study 2, U74v2/ER bKO kidney E2 (82412)) [5]: 369
- E2 Expr (/evansm/Kidney, mouse/Study 2, U74v2/WT kidney E2 (82408)) [5]: 329
- E2 Expr (/evansm/Kidney, mouse/Study 2, U74v2/WT kidney E2 (82409)) [5]: 230
- E2 [6]: 92
- Study 1 E2 Expr (/evansm/Kidney, mouse/Study 1, U74v2/KO E2 kidney (81038)) [6]: 70
- E2 Expr (/evansm/Kidney, mouse/Study 2, U74v2/ER bKO kidney E2 (82412)) [6]: 104
- E2 Expr (/evansm/Kidney, mouse/Study 2, U74v2/WT kidney E2 (82408)) [6]: 104
- E2 Expr (/evansm/Kidney, mouse/Study 2, U74v2/WT kidney E2 (82409)) [6]: 73
- E2 [7]: 72
- Study 1 E2 Expr (/evansm/Kidney, mouse/Study 1, U74v2/KO E2 kidney (81038)) [7]: 61
- E2 Expr (/evansm/Kidney, mouse/Study 2, U74v2/ER bKO kidney E2 (82412)) [7]: 58
- E2 Expr (/evansm/Kidney, mouse/Study 2, U74v2/WT kidney E2 (82408)) [7]: 80
- E2 Expr (/evansm/Kidney, mouse/Study 2, U74v2/WT kidney E2 (82409)) [7]: 44
- E2 [8]: 236
- Study 1 E2 Expr (/evansm/Kidney, mouse/Study 1, U74v2/KO E2 kidney (81038)) [8]: 282
- E2 Expr (/evansm/Kidney, mouse/Study 2, U74v2/ER bKO kidney E2 (82412)) [8]: 295
- E2 Expr (/evansm/Kidney, mouse/Study 2, U74v2/WT kidney E2 (82408)) [8]: 264
- E2 Expr (/evansm/Kidney, mouse/Study 2, U74v2/WT kidney E2 (82409)) [8]: 178
- E2 Expr (/evansm/Kidney, mouse/Study 1, U74v2/WT E2 kidney (81036)) (92232_at, U88328, cytokine inducible SH-2 containing protein 3): 45
- E2 Expr (/evansm/Kidney, mouse/Study 1, U74v2/WT E2 kidney (81036)) (93104_at, Z16410, B-cell translocation gene 1, anti-proliferative): 14
- E2 Expr (/evansm/Kidney, mouse/Study 1, U74v2/WT E2 kidney (81036)) (93374_at, AI836349, junctophilin 3): 65
- E2 Expr (/evansm/Kidney, mouse/Study 1, U74v2/WT E2 kidney (81036)) (94694_at, M69196, proprotein convertase subtillsin/kexin type 1): 27
- E2 Expr (/evansm/Kidney, mouse/Study 1, U74v2/WT E2 kidney (81036)) (94716_f_at, M17962, kallikrein 9): 380
- E2 Expr (/evansm/Kidney, mouse/Study 1, U74v2/WT E2 kidney (81036)) (94773_at, X01801, nerve growth factor, alpha): 53
- E2 Expr (/evansm/Kidney, mouse/Study 1, U74v2/WT E2 kidney (81036)) (95559_at, AI838836, RIKEN cDNA 6330403K07 gene): 74
- E2 Expr (/evansm/Kidney, mouse/Study 1, U74v2/WT E2 kidney (81036)) (95775_f_at, V00829, kallikrein 1): 370
- E2 Expr (/evansm/Kidney, mouse/Study 1, U74v2/WT E2 kidney (81036)) (95905_at, AI118078, Mm.24361): 83
- E2 Expr (/evansm/Kidney, mouse/Study 1, U74v2/WT E2 kidney (81036)) (96215_f_at, AI53421, Mm.218360): 206
- E2 Expr (/evansm/Kidney, mouse/Study 1, U74v2/WT E2 kidney (81036)) (96591_at, U24703, reelin): 43
- E2 Expr (/evansm/Kidney, mouse/Study 1, U74v2/WT E2 kidney (81036)) (96629_at, X04097, similar to TESTOSTERONE-REGULATED RP2 PROTEIN): 55
- E2 Expr (/evansm/Kidney, mouse/Study 1, U74v2/WT E2 kidney (81036)) (97353_at, AI837497, AF9Q34 NGAP-like protein): 29
- E2 Expr (/evansm/Kidney, mouse/Study 1, U74v2/WT E2 kidney (81036)) (97519_at, X13986, secreted phosphoprotein 1): 178
- E2 Expr (/evansm/Kidney, mouse/Study 1, U74v2/WT E2 kidney (81036)) (97520_s_at, X83569, neuroatin): 157
- E2 Expr (/evansm/Kidney, mouse/Study 1, U74v2/WT E2 kidney (81036)) (98055_at, AW121500, bladder cancer associated protein homolog (human)): 14
- E2 Expr (/evansm/Kidney, mouse/Study 1, U74v2/WT E2 kidney (81036)) (98437_at, U83720, caspase 3, apoptosis related cysteine protease): 39
- E2 Expr (/evansm/Kidney, mouse/Study 1, U74v2/WT E2 kidney (81036)) (98628_f_at, AF003695, hypoxia inducible factor 1, alpha subunit): 288
- E2 Expr (/evansm/Kidney, mouse/Study 1, U74v2/WT E2 kidney (81036)) (99057_at, M12379, thymus cell antigen 1, theta): 57
- E2 Expr (/evansm/Kidney, mouse/Study 1, U74v2/WT E2 kidney (81036)) (99127_at, X61506, spinocerebellar ataxia 10 homolog (human)): 66
- E2 Expr (/evansm/Kidney, mouse/Study 1, U74v2/WT E2 kidney (81036)) (99552_at, U79550, slug, chicken homolog): 19
- E2 Expr (/evansm/Kidney, mouse/Study 1, U74v2/WT E2 kidney (81036)) (99632_at, U83902, MAD2 (mitotic arrest deficient, homolog)-like 1 (yeast)): 27
- E2 Expr (/evansm/Kidney, mouse/Study 1, U74v2/WT E2 kidney (81036)) (100060_l_at, M13500, kallikrein 8): 39
- E2 Expr (/evansm/Kidney, mouse/Study 1, U74v2/WT E2 kidney (81036)) (100061_f_at, M13500, kallikrein 8): 341
- E2 Expr (/evansm/Kidney, mouse/Study 1, U74v2/WT E2 kidney (81036)) (100407_at, L38580, galanin): 98
- E2 Expr (/evansm/Kidney, mouse/Study 1, U74v2/WT E2 kidney (81036)) (100422_f_at, AJ237939, signal transducer and activator of transcription 5A): 151
- E2 Expr (/evansm/Kidney, mouse/Study 1, U74v2/WT E2 kidney (81036)) (100423_f_at, AJ237939, signal transducer and activator of transcription 5A): 96
- E2 Expr (/evansm/Kidney, mouse/Study 1, U74v2/WT E2 kidney (81036)) (100440_f_at, U76758, ankyrin 1, erythroid): 119
- E2 Expr (/evansm/Kidney, mouse/Study 1, U74v2/WT E2 kidney (81036)) (100539_at, AI841279, ?HBACH Cytosolic acyl coenzyme A thioester hydrolase): 16
- E2 Expr (/evansm/Kidney, mouse/Study 1, U74v2/WT E2 kidney (81036)) (100681_f_at, V00829): 123
- E2 Expr (/evansm/Kidney, mouse/Study 1, U74v2/WT E2 kidney (81036)) (100719_f_at, J03677, kallikrein 16): 119
- E2 Expr (/evansm/Kidney, mouse/Study 1, U74v2/WT E2 kidney (81036)) (101289_f_at, M17979): 305
- E2 Expr (/evansm/Kidney, mouse/Study 1, U74v2/WT E2 kidney (81036)) (101737_at, U12932, follicle stimulating hormone beta): 19
- E2 Expr (/evansm/Kidney, mouse/Study 1, U74v2/WT E2 kidney (81036)) (101738_at, U25145, tutetnizing hormone beta): 578
- E2 Expr (/evansm/Kidney, mouse/Study 1, U74v2/WT E2 kidney (81036)) (101870_at, V00793): 21
